Numbered stars: 1 amine (or outer) side, 2 acyl side, 3 side chain; on linkers, the order of the positions; unused ones are H or OH. Square brackets hold non-standard residues; d marks the D form. Peptide text beside a SMILES is read from it. * marks the point of attachment. X4 = O=C([C@@H]1Cc2ccc(OP(=O)(O)O)cc2CN1[*:1])[*:2]; pY = N[C@@H](Cc1ccc(OP(=O)(O)O)cc1)C(=O)O; X7 = O=C(Cc1c[nH]c2ccc(OP(=O)(O)O)cc12)*; aThr = C[C@H](O)[C@H](N)C(=O)O
Biological target: Signal transducer and activator of transcription 3 (Homo sapiens, UniProt P40763)
Test: Inhibition of Stat3 by fluorescence polarization assay

Chain of Signal transducer and activator of transcription 3 (P40763 whole entry): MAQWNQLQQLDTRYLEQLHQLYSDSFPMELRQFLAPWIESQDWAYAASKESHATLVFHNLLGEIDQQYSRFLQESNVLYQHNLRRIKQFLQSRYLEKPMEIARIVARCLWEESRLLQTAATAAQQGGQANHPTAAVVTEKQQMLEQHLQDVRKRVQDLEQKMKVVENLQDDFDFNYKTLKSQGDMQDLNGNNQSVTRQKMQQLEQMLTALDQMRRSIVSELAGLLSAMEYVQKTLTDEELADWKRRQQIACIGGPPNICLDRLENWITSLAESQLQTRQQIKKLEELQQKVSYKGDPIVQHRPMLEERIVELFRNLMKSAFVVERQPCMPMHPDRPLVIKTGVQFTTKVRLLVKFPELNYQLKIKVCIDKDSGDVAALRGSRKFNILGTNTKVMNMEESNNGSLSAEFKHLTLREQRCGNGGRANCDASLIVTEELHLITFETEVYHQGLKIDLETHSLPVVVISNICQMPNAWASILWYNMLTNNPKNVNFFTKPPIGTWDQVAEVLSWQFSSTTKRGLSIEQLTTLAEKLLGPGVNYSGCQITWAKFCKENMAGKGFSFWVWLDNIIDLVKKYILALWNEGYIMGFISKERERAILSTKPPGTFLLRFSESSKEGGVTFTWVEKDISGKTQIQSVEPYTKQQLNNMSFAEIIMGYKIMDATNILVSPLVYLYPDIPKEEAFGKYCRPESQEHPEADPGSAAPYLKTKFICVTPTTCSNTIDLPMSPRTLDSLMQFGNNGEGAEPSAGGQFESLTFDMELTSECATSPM

| SMILES | IC50 [nM] |
| --- | --- |
| NC(=O)CC[C@H](NC(=O)[C@H]1CC[C@H]2CC[C@H](NC(=O)/C=C/c3ccc(OP(=O)(O)O)cc3)C(=O)N21)C(=O)NCc1ccccc1 | 59800 |
| CC(C)NC(=O)[C@H](CCC(N)=O)NC(=O)[C@@H]1Cc2cccc3c2N1C(=O)[C@@H](NC(=O)/C=C/c1ccc(OP(=O)(O)O)cc1)CC3 | 305 |
| NC(=O)CC[C@H](NC(=O)[C@@H]1Cc2cccc3c2N1C(=O)[C@@H](NC(=O)/C=C/c1ccc(OP(=O)(O)O)cc1)CC3)C(=O)O | 359 |
| NC(=O)CC[C@H](NC(=O)[C@@H]1Cc2cccc3c2N1C(=O)[C@@H](NC(=O)/C=C/c1ccc(OP(=O)(O)O)cc1)C=C3)C(=O)NCc1ccccc1 | 195 |
| CNC(=O)[C@H](CCC(N)=O)NC(=O)[C@@H]1Cc2cccc3c2N1C(=O)[C@@H](NC(=O)/C=C/c1ccc(OP(=O)(O)O)cc1)CC3 | 269 |
| C[C@H](NC(=O)[C@@H]1Cc2cccc3c2N1C(=O)[C@@H](NC(=O)/C=C/c1ccc(OP(=O)(O)O)cc1)CC3)C(N)=O | 25100 |
| CC(=O)N[C@@H](Cc1ccc(OP(=O)(O)O)cc1)C(=O)N[C@@H](CC(C)C)C(=O)N1CCC[C@H]1C(=O)N[C@@H](CCC(N)=O)C(=O)N[C@H](C(N)=O)[C@H](C)O (Ac-[pY]LPQ[aThr]-NH2) | 739 |
| O=C(O)CCCNC(=O)[C@@H]1Cc2cccc3c2N1C(=O)[C@@H](NC(=O)/C=C/c1ccc(OP(=O)(O)O)cc1)CC3 | 815 |
| COC(=O)[C@H](CCC(N)=O)NC(=O)[C@@H]1Cc2cccc3c2N1C(=O)[C@@H](NC(=O)/C=C/c1ccc(OP(=O)(O)O)cc1)CC3 | 141 |
| NC(=O)CC[C@H](NC(=O)[C@@H]1CC[C@@H]2CC[C@H](NC(=O)/C=C/c3ccc(OP(=O)(O)O)cc3)C(=O)N21)C(=O)NCc1ccccc1 | 604 |
| NC(=O)CC[C@H](NC(=O)[C@@H]1Cc2cccc3c2N1C(=O)[C@@H](NC(=O)c1cc2cc(OP(=O)(O)O)ccc2[nH]1)CC3)C(=O)NCc1ccccc1 | 190 |
| NC(=O)CC[C@H](NC(=O)[C@@H]1CC[C@H]2CC[C@H](NC(=O)/C=C/c3ccc(OP(=O)(O)O)cc3)C(=O)N21)C(=O)NCc1ccccc1 | 45700 |
| CC(C)C[C@H](NC(=O)/C=C/c1ccc(OP(=O)(O)O)cc1)C(=O)N1CCC[C@H]1C(=O)N[C@@H](CCC(N)=O)C(=O)NCc1ccccc1 | 138 |
| CCCC[C@H](NC(=O)[C@@H]1Cc2cccc3c2N1C(=O)[C@@H](NC(=O)/C=C/c1ccc(OP(=O)(O)O)cc1)CC3)C(N)=O | 19200 |
| CS(=O)(=O)CC[C@H](NC(=O)[C@@H]1Cc2cccc3c2N1C(=O)[C@@H](NC(=O)/C=C/c1ccc(OP(=O)(O)O)cc1)CC3)C(N)=O | 7030 |
| NC(=O)CC[C@H](NC(=O)[C@@H]1Cc2cccc3c2N1C(=O)[C@@H](NC(=O)/C=C/c1ccc(OP(=O)(O)O)cc1)CC3)C(N)=O | 233 |
| NC(=O)CC[C@H](NC(=O)[C@@H]1Cc2cccc3c2N1C(=O)[C@@H](NC(=O)/C=C/c1ccc(OP(=O)(O)O)cc1)CC3)C(=O)NCc1ccccc1 | 162 |
| CC(C)C[C@H](NC(=O)Cc1c[nH]c2ccc(OP(=O)(O)O)cc12)C(=O)N1CCC[C@H]1C(=O)N[C@@H](CCC(N)=O)C(=O)N[C@H](C(N)=O)[C@@H](C)O (X7-LPQT-NH2) | > 100000 |
| C[S+]([O-])CC[C@H](NC(=O)[C@@H]1Cc2cccc3c2N1C(=O)[C@@H](NC(=O)/C=C/c1ccc(OP(=O)(O)O)cc1)CC3)C(N)=O (some centres not stated) | 7600 |
| NC(=O)[C@@H]1Cc2cccc3c2N1C(=O)[C@@H](NC(=O)/C=C/c1ccc(OP(=O)(O)O)cc1)CC3 | 35600 |
| NC(=O)C1CCN(C(=O)[C@@H]2Cc3cccc4c3N2C(=O)[C@@H](NC(=O)/C=C/c2ccc(OP(=O)(O)O)cc2)CC4)C1 (some centres not stated) | 595 |
| CC(=O)N1Cc2cc(OP(=O)(O)O)ccc2C[C@H]1C(=O)N[C@@H](CC(C)C)C(=O)N1CCC[C@H]1C(=O)N[C@@H](CCC(N)=O)C(=O)N[C@H](C(N)=O)[C@@H](C)O (Ac-[X4]LPQT-NH2) | > 100000 |

Reference: ChEMBL document CHEMBL1153822, “Conformationally constrained peptidomimetic inhibitors of signal transducer and activator of transcription. 3: Evaluation and molecular modeling” (J Med Chem, 2009)
